# Experimental data taken from patent US5488060A, “Substituted thiadiazoles, compositions containing them and their use as antimicrobial and marine antifouling agents” (The Dow Chemical Company, priority 1994, dated 1996).
# Where two headings read alike, the source gives them in different places.
# What was measured:
# Format in all cases: cell-based
# Bacillus subtilis (Bs) = test: Minimum inhibitory concentration (MIC) in nutrient agar, Bacillus subtilis
# Method: (§1) The antimicrobial activity of the compounds of the present invention is set forth as the minimum inhibitory concentration (MIC) for the active compounds and is determined for nine (9) bacteria, using nutrient agar, and seven (7) yeast and fungi, using malt yeast agar. This determination is conducted using a one percent solution of the test compound prepared in a mixture of acetone and water.
# (§2) Nutrient agar is prepared at pH 6.8, representing a neutral medium, and at pH 8.2, representing an alkaline medium. The nutrient agars are prepared by adding 23 g of nutrient agar to one-liter of deionized water. In addition, the alkaline medium is prepared by adjusting a 0.04M solution of N-[tris-(hydroxymethyl)methyl]glycine buffered deionized water with concentrated sodium hydroxide to a pH of 8.5.
# (§3) The test tubes containing the agar are cooled in a water bath until the temperature of the agar is 48° C. Then, an appropriate amount of the one percent solution of the test compound is added (except in the controls where no compound is added) to the respective test tubes so that the final concentrations are 500, […], 100, 50, 25, 10, 5, 2.5, 1.0 and zero parts per million of the test compound in the agar, thus having a known concentration of test compound dispersed therein. The contents of the test tubes are then transferred to respective petri plates. After drying for 24 hours, the petri plates containing nutrient agar are inoculated with bacteria and those containing malt yeast agar are inoculated with yeast and fungi.
# (§4) The inoculation with bacteria is accomplished by using the following procedure. Twenty-four hour-cultures of each of the bacteria are prepared by incubating the respective bacteria in tubes containing nutrient broth for 24 hours at 30° C. in a shaker. Dilutions of each of the 24 hour-cultures are made so that nine separate suspensions (one for each of the nine test bacteria) are made, each containing 10^8 colony forming units (CFU) per mL of suspension of a particular bacteria. Aliquots of 0.3 mL of each of the bacterial suspensions are used to fill the individual wells of Steer's Replicator. For each microbial suspension, 0.3 mL was used to fill three wells (i.e., three wells of 0.3 mL each) so that for the nine different bacteria, 27 wells are filled. The Steer's Replicator is then used to inoculate both the neutral and alkaline pH nutrient agar petri plates.
# (§5) The inoculated petri plates are incubated at 30° C. for 48 hours and then read to determine if the test compound which is incorporated into the agar prevented growth of the respective bacteria.
# [1] = system: Staphylococcus aureus (Sa); test: Minimum inhibitory concentration (MIC) in nutrient agar, Staphylococcus aureus
# Method: as §1, §2, §3, §4, §5
# Proteus vulgaris (Pv) = test: Minimum inhibitory concentration (MIC) in nutrient agar, Proteus vulgaris; settings: 48 h
# Method: as §1, §2, §3, §4, §5
# [2] = system: Salmonella choleraesuis (Se); test: Minimum inhibitory concentration (MIC) in nutrient agar, Salmonella choleraesuis; settings: Salmonella enterica
# Method: as §1, §2, §3, §4, §5
# [3] = system: Pseudomonas aeruginosa (Pa); test: Minimum inhibitory concentration (MIC) in nutrient agar, Pseudomonas aeruginosa; settings: 30° C., 48 hours, read-out: Minimum Inhibitory Concentration, Pa
# Method: as §1, §2, §3, §4, §5
# [4] = system: Klebsiella pneumoniae (Kp); test: Minimum inhibitory concentration (MIC) in nutrient agar, Klebsiella pneumoniae
# Method: as §1, §2, §3, §4, §5
# Escherichia coli (Ec) = test: Minimum inhibitory concentration (MIC) in nutrient agar, Escherichia coli; settings: 48 h
# Method: as §1, §2, §3, §4, §5
# [5] = system: Saccharomyces cerevisiae (Sc); test: Minimum inhibitory concentration (MIC) in malt yeast agar, Saccharomyces cerevisiae
# Method: as §1
# (§6) Malt yeast agar is prepared at pH 5.5 by adding 3 g yeast extract and 45 g malt agar per liter of deionized water. The specific agar is dispensed in 30 mL aliquots into 25×200 mm test tubes, capped and autoclaved for 15 minutes at 115° C.
# as §3
# (§7) The inoculation with the yeast and fungi is accomplished as follows. Cultures of yeast and fungi are incubated for seven days on malt yeast agar at 30° C. These cultures are used to prepare suspensions by the following procedure. A suspension of each organism is prepared by adding 10 mL of sterile saline and 10 microliters of octylphenoxy polyethoxy ethanol to the agar slant of yeast or fungi. The sterile saline/octylphenoxy potyethoxy ethanol solution is then agitated with a sterile swab to suspend the microorganism grown on the slant. Each resulting suspension is diluted into sterile saline (1 part suspension: 9 parts sterile saline). Aliquots of these dilutions are placed in individual wells of Steer's Replicator and petri plates inoculated as previously described. The petri plates are incubated at 30° C. and read after 48 hours for yeast and 72 hours for fungi.
# [6] = system: Enterobacter aerogenes (Ea); test: Minimum inhibitory concentration (MIC) in nutrient agar, Enterobacter aerogenes; settings: Klebsiella aerogenes, 48 h
# Method: as §1, §2, §3, §4, §5
# Trichoderma viride (Tv) = test: Minimum inhibitory concentration (MIC) in malt yeast agar, Trichoderma viride; settings: pH 5.5; malt yeast agar, 30° C., 72 hours for fungi; read-out: Minimum Inhibitory Concentration, Tv
# Method: as §1, §6, §3, §7
# [7] = system: Pseudomonas aeruginosa (PRD-10); test: Minimum inhibitory concentration (MIC) in nutrient agar, Pseudomonas aeruginosa PRD-10; settings: 48 h
# Method: as §1, §2, §3, §4, §5
# Candida albicans (Ca) = test: Minimum inhibitory concentration (MIC) in malt yeast agar, Candida albicans; settings: pH 5.5; malt yeast agar, 30° C., 48 hours for yeast; read-out: Minimum Inhibitory Concentration, Ca
# Method: as §1, §6, §3, §7
# Fusarium oxysporum (Fo) = test: Minimum inhibitory concentration (MIC) in malt yeast agar, Fusarium oxysporum; settings: pH 5.5; malt yeast agar, 30° C., 72 hours for fungi; read-out: Minimum Inhibitory Concentration, Fo
# Method: as §1, §6, §3, §7
# [8] = system: Aureobasidium pullulan (Ap); test: Minimum inhibitory concentration (MIC) in malt yeast agar, Aureobasidium pullulan; settings: pH 5.5, read-out: Minimum Inhibitory Concentration, Ap
# Method: as §1, §6, §3, §7
# Aspergillus niger (An) = test: Minimum inhibitory concentration (MIC) in malt yeast agar, Aspergillus niger; settings: pH 5.5; malt yeast agar, 30° C., 72 hours for fungi; read-out: Minimum Inhibitory Concentration, An
# Method: as §1, §6, §3, §7
# [9] = system: Penicillium chrysogenum (Pc); test: Minimum inhibitory concentration (MIC) in malt yeast agar, Penicillium chrysogenum; settings: 72 h, pH 5.5, read-out: Minimum Inhibitory Concentration, PC
# Method: as §1, §6, §3, §7
# [10] = pH 6.8, nutrient agar, 30° C., 48 hours, read-out: Minimum Inhibitory Concentration, Bs
# [11] = pH 6.8, read-out: Minimum Inhibitory Concentration, Pv
# [12] = pH 8.2, read-out: Minimum Inhibitory Concentration, Pv
# [13] = 48 h, pH 8.2, read-out: Minimum Inhibitory Concentration, SC
# [14] = 48 h, pH 8.2, read-out: Minimum Inhibitory Concentration, Kp
# [15] = pH 6.8, read-out: Minimum Inhibitory Concentration, Ec
# [16] = pH 8.2, read-out: Minimum Inhibitory Concentration, Ec
# [17] = pH 6.8, read-out: Minimum Inhibitory Concentration, Ea
# [18] = pH 8.2, read-out: Minimum Inhibitory Concentration, Ea
# [19] = pH 6.8, read-out: Minimum Inhibitory Concentration, PRD
# [20] = pH 8.2, read-out: Minimum Inhibitory Concentration, PRD
SMILES,MIC (Bacillus subtilis (Bs); [10]),MIC (Proteus vulgaris (Pv); [11]),MIC (Proteus vulgaris (Pv); [12]),"MIC [2, 13]","MIC ([3]; pH 6.8, nutrient agar)","MIC ([3]; pH 8.2, nutrient agar)","MIC [4, 14]",MIC (Escherichia coli (Ec); [15]),MIC (Escherichia coli (Ec); [16]),"MIC [6, 17]","MIC [6, 18]",MIC (Trichoderma viride (Tv)),"MIC [7, 19]","MIC [7, 20]",MIC (Candida albicans (Ca)),MIC [8],MIC (Aspergillus niger (An)),other results
"N#CSc1nsnc1-c1cccc(Cl)c1 [Example III, 4-(3-Chlorophenyl)-3-thiocyanato-l,2,5-thiadiazole]",25 µg/mL,> 500 µg/mL,500 µg/mL,500 µg/mL,> 500 µg/mL,500 µg/mL,500 µg/mL,50 µg/mL,500 µg/mL,> 500 µg/mL,> 500 µg/mL,2.5 µg/mL,> 500 µg/mL,500 µg/mL,5 µg/mL,2.5 µg/mL,5 µg/mL,"MIC (Bacillus subtilis (Bs); pH 8.2, nutrient agar, 30° C., 48 hours, read-out: Minimum Inhibitory Concentration, Bs): 100 µg/mL; MIC ([1]; pH 6.8, nutrient agar, 30° C., 48 hours, read-out: Minimum Inhibitory Concentration, Sa): 25 µg/mL; MIC ([1]; pH 8.2, nutrient agar, 30° C., 48 hours, read-out: Minimum Inhibitory Concentration, Sa): 250 µg/mL; MIC ([2]; pH 6.8, nutrient agar, 30° C., 48 hours, read-out: Minimum Inhibitory Concentration, SC): 50 µg/mL; MIC ([4]; 48 h, pH 6.8, read-out: Minimum Inhibitory Concentration, Kp): 50 µg/mL; MIC ([5]; 48 h, pH 5.5, read-out: Minimum Inhibitory Concentration, SC): 2.5 µg/mL; MIC (Fusarium oxysporum (Fo)): 2.5 µg/mL"
"N#CSc1nsnc1-c1ccc(Br)cc1 [Example VI, 4-(4-Bromophenyl)-3-thiocyanato-1,2,5-thiadiazole]",25 µg/mL,500 µg/mL,500 µg/mL,500 µg/mL,500 µg/mL,500 µg/mL,500 µg/mL,500 µg/mL,500 µg/mL,500 µg/mL,500 µg/mL,< 1 µg/mL,500 µg/mL,500 µg/mL,5 µg/mL,2.5 µg/mL,5 µg/mL,"MIC [9]: 10 µg/mL; MIC (Bacillus subtilis (Bs); 48 h, pH 8.2, read-out: Minimum Inhibitory Concentration, Bs): 500 µg/mL; MIC ([1]; 48 h, pH 6.8, read-out: Minimum Inhibitory Concentration, Sa): 50 µg/mL; MIC ([1]; 48 h, pH 8.2, read-out: Minimum Inhibitory Concentration, Sa): 500 µg/mL; MIC ([2]; 48 h, pH 6.8, read-out: Minimum Inhibitory Concentration, SC): 500 µg/mL; MIC ([4]; pH 6.8, nutrient agar, 30° C., 48 hours, read-out: Minimum Inhibitory Concentration, Kp): 500 µg/mL; MIC ([5]; pH 5.5, malt yeast agar, 30° C., 48 hours for yeast, read-out: Minimum Inhibitory Concentration, SC): 5 µg/mL"
